From PubChem BioAssay (NCI)
Several values for one entry are separate records, joined by “and”; a condition that tells them apart may be missing. Equal values may be shown once.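 Cultured in 96-well plates, cells were exposed to test compound for 48 hours across five concentrations. GI50 = concentration required for 50% inhibition of growth. TGI is the concentration that stops growth completely.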

Legend:
Experiment in all cases: NCI-60 cell line screen, 48 h
[1] = system: 786-0 renal
[2] = system: A549 NSCLC
[3] = system: ACHN renal
[4] = system: HS 578T breast
[5] = system: KM12 colon
[6] = system: SW-620 colon
[7] = system: U251 CNS
[8] = system: CAKI-1 renal
[9] = system: CCRF-CEM leukemia
[10] = system: SN12C renal

SMILES | TGI [1] [µM] | TGI [2] [µM] | TGI [3] [µM] | TGI [4] [µM] | TGI [5] [µM] | TGI [6] [µM] | TGI [7] [µM] | TGI [8] [µM] | TGI [9] [µM] | TGI [10] [µM] | GI50 [1] [µM] | GI50 [2] [µM] | GI50 [3] | GI50 [8] | GI50 [5] [µM] | GI50 [10] [µM] | GI50 [6] | GI50 [7] | GI50 [9]
CSC1(CC(=O)N2CCCCC2)C(=O)Nc2ccccc21 (stereo unspecified) | > 100 | > 100 | > 100 | > 100 | > 100 | > 100 | > 100 |  |  |  |  |  |  |  |  |  |  |  | 
c1ccc2c(CNCCCCCCCCCCCCNCc3cccc4ccccc34)cccc2c1 | 3.23 | 3.37 | 3.7 |  | 2.99 | 3.2 | 3.17 | 4.27 | 3.2 | 13.6 |  |  |  |  |  |  |  |  | 
Cc1ccccc1NC(=O)c1ccc([N+](=O)[O-])cc1 | > 100 | > 100 | > 100 |  | > 100 | > 100 | > 100 | > 100 | > 100 | > 100 |  |  |  |  |  |  |  |  | 
CCOC(=O)C(C(=O)OCC)=c1sc(=C(C(=O)OCC)C(=O)OCC)s1 | > 100 | > 100 | > 100 |  | > 100 | > 100 |  | > 100 | > 100 | > 100 |  |  |  |  |  |  |  |  | 
Cc1c(CC/C(=N\Nc2ccc([N+](=O)[O-])cc2[N+](=O)[O-])c2ccccc2)c2ccccc2n1C | > 100 | > 100 | > 100 |  | > 100 | > 100 | > 100 | > 100 | > 66.6 | > 100 |  |  |  |  |  |  |  |  | 
COc1ccc(C(c2cc3c(cc2O)OCO3)N2CCOCC2)cc1OC (stereo unspecified) | 23.1 | 51.9 | 23.5 | 19.9 | 24.9 | 14.4 | 21.4 | 25.4 |  | 22.3 |  |  |  |  |  |  |  |  | 
CC(C)C1COC(c2ccc3ccccc3c2-c2c(O[Si](C)(C)C(C)(C)C)ccc3ccccc23)=N1 (stereo unspecified) | 32.4 | 31.7 | 33.2 |  | 35.7 | 35.1 |  | 45.2 | 35.5 | 33.2 |  |  |  |  |  |  |  |  | 
FC(F)(F)c1nc(-c2ccccc2)oc1Sc1oc(-c2ccccc2)nc1C(F)(F)F | > 100 | > 100 | > 100 |  | > 100 | > 100 | > 100 | 65.7 | > 100 | > 100 |  |  |  |  |  |  |  |  | 
CC(C)(C)C(=O)/C=C/c1cccc(Oc2ccccc2)c1 | 30.7 | 48.8 | 28.5 |  | 25.6 |  | 23.5 |  | 31 | 27.4 |  |  |  |  |  |  |  |  | 
CC(CN)[C@@H]1CC[C@]2(CO)CC[C@]3(C)[C@H](CC[C@@H]4[C@@]5(C)CCC(N)C(C)(C)[C@@H]5CC[C@]43C)[C@@H]12 (stereo partly specified) | 3.38 | 3.29 | 3.22 |  | 3.34 | 3.43 | 3.31 | 3.12 |  | 3.67 | 1.58 | 1.85 | 1.77 µM | 1.63 µM | 1.74 | 1.91 | 1.8 µM | 1.91 µM | 
COC(=O)[C@@]12C=CC(=O)[C@H]3C[C@@H](C(C(C)C)C1)[C@]32OC (stereo partly specified) | > 100 | > 100 | > 100 |  | > 100 | > 100 | > 100 | > 100 | > 100 | > 100 |  |  |  |  |  |  |  |  | 
COc1ccc(C2C3=C(COC3=O)Oc3cc4c(cc32)OCO4)cc1 (stereo unspecified) | > 100 | > 100 | > 100 |  |  | > 100 | > 100 | > 100 | > 100 | > 100 |  |  |  |  |  |  |  |  | 
O=C(C=Nc1ccccc1C(=O)[O-])c1cccs1.O=C(C=Nc1ccccc1C(=O)[O-])c1cccs1.[Zn+2] | > 100 | > 100 | > 100 |  | > 100 | > 100 | 35.5 | > 100 | 65.3 | > 10 |  |  |  |  |  |  |  |  | 
FC(F)(F)c1cccc(C2SCc3nc4ccccc4n32)c1 (stereo unspecified) | > 100 | > 100 | > 100 |  | > 100 | > 100 | > 100 | > 100 | > 100 | > 100 |  |  |  |  |  |  |  |  | 
COC1CC(OC)C(O)C(CO)O1 (stereo unspecified) | > 100 | > 100 | > 100 |  | > 100 | > 100 | > 100 |  | > 100 | > 100 |  |  |  |  |  |  |  |  | 
CCCCCCCCCCCCCCCCCC[N+](C)(C)Cc1ccc(C[N+](C)(C)CCCCCCCCCCCCCCCCCC)cc1 | 39.1 | 38.8 | 30.3 |  | 39.4 | > 100 | 56.2 | 47.7 | 44.1 | 30.1 |  |  |  |  |  |  |  |  | 
Cc1ccc(NC(=O)CC2C(=O)Nc3ccccc3S2=O)c(C)c1 (stereo unspecified) | 33.4 | 64.8 | 72.9 |  | > 100 | 67.4 | 27 | > 48.4 | 67 | 96.7 |  |  |  |  |  |  |  |  | 

SMILES | TGI [1] [µM] | TGI [2] [µM] | TGI [3] [µM] | TGI [4] [µM] | TGI [5] [µM] | TGI [6] [µM] | TGI [7] [µM] | TGI [8] [µM] | TGI [9] [µM] | TGI [10] [µM] | GI50 [1] [µM] | GI50 [2] [µM] | GI50 [3] | GI50 [8] | GI50 [5] [µM] | GI50 [10] [µM] | GI50 [6] | GI50 [7] | GI50 [9]
Nc1nc(=Nc2ccccc2)ss1 | > 100 | > 100 | > 100 |  | > 100 | > 100 | > 100 | > 100 |  | > 100 |  |  |  |  |  |  |  |  | 
CC1=Nc2ccccc2C12C(c1ccccc1)C(c1ccccc1)C(=O)N1c3ccccc3CC12 (stereo unspecified) | > 100 | > 100 | > 100 |  | > 100 | > 100 | > 100 | > 100 |  | > 100 |  |  |  |  |  |  |  |  | 
COC(=O)C1=C(C)N(NC(N)=O)C(C)(O)C12CCOC2=O (stereo unspecified) | > 100 | > 100 | > 100 |  | > 100 | > 100 | > 100 | > 100 | > 100 | > 100 |  |  |  |  |  |  |  |  | 
CC[CH2][Sn]([CH2]CC)([O]C(=O)Cc1ccc(F)cc1)[O][Sn]([CH2]CC)([CH2]CC)[O]C(=O)Cc1ccc(F)cc1 | 0.361 | 4.71 | 0.552 |  | 2.06 | 0.22 | 0.431 | 0.481 | 1.12 | 1 | 0.133 | 1.88 | 0.209 µM | 0.11 µM | 0.702 | 0.262 | 0.0773 µM | 0.131 µM | 
CCCN1C(=O)CNC(=O)c2[nH]cnc21 | > 100 | > 100 | > 100 |  | > 100 | > 100 | > 100 | > 100 | > 100 | > 100 |  |  |  |  |  |  |  |  | 
Cc1ccc(N2C(=O)C(Cl)=C(Cl)C2=O)cc1 | 31 | > 100 | 34.1 |  | 45.2 | 34.8 | > 100 | 31.4 | 23.4 | 33.7 |  |  |  |  |  |  |  |  | 
CC(C)c1cccc(C(C)C)c1NC(=O)CCC(=O)NN | > 100 | > 100 | > 100 |  | > 100 | 42.9 | > 100 | > 100 | > 100 | > 100 |  |  |  |  |  |  |  |  | 
C/C=C/C1=CN2C(=O)c3cc(OC4OC(C)C(NC)C(C)(O)C4O)c(C)c(O)c3N=C[C@@H]2C1 (stereo partly specified) |  | 24.8 |  |  |  | 10.2 | 12.5 |  | 41.5 | 1.21 | 0.065 |  | 0.071 µM and < 0.01 µM | 0.0279 µM and < 0.01 µM |  |  | 0.0951 µM and < 0.01 µM | 0.043 µM and < 0.01 µM | 0.0639 µM and < 0.01 µM
O=C(Cc1ccccc1)NS(=O)(=O)c1ccccc1 | > 100 | > 100 | > 100 |  | > 100 | > 100 | > 100 | > 100 | > 100 | > 100 |  |  |  |  |  |  |  |  | 
CCCCCCCCCCCCC(CCCCCCCCCCCC)OP(=O)(O)O | > 100 | > 100 | > 100 |  | > 100 | > 100 | > 100 | > 100 | > 100 | > 100 |  |  |  |  |  |  |  |  | 
O=NN(CCCl)C(=O)N[C@H]1CCCC[C@@H]1Cl | > 100 | > 100 | > 100 |  | > 100 | > 100 | > 100 | > 100 | 43.7 | > 100 |  |  |  |  |  |  |  |  | 
Cn1sc2ccccc2c1=S | 13.6 | 28.8 | 26.7 |  | 25.3 | 5.2 | 13.5 | 16.9 | 14.8 | 18.2 |  |  |  |  |  |  |  |  | 
Nc1ccccc1C#Cc1ccccc1C#Cc1cnccn1 | 28.7 | > 100 | 46.2 |  | 23.9 | 31.7 | 32 | 29.2 | > 100 | 30 | 15.3 | 44.3 | 24.1 µM | 14.3 µM | 11 | 15.2 | 17.3 µM | 17.7 µM | 33.2 µM
c1ccc2c3c(ccc2c1)-c1c(ccc2c(NCCCCN4CCCCC4)cccc12)C3 | 3.14 | 2.79 | 2.99 |  | 3 |  | 3.16 |  |  | 3.05 | 1.76 | 1.47 | 1.61 µM |  | 1.51 | 1.62 |  | 1.77 µM | 
C#Cc1cc(CN(CC(=O)OC(C)(C)C)CC(=O)OC(C)(C)C)nc(CN(CC(=O)OC(C)(C)C)CC(=O)OC(C)(C)C)c1 | 47.8 | 89.4 | 77 |  | 23 | 21.1 | 27.8 | 33.1 | 7.93 | > 100 |  |  |  |  |  |  |  |  | 
CCOC(=O)NC1CC2CCC1(OC)C=C2C (stereo unspecified) | > 100 | > 100 | > 100 |  | > 100 | > 100 | > 100 | > 100 | > 100 | > 100 |  |  |  |  |  |  |  |  | 
